Assay results: publication PMC10465233, “Lys-urea-Aad, Lys-urea-Cmc and Lys-urea-Cms as potential pharmacophores for the design of PSMA-targeted radioligands to reduce off-target uptake in kidneys and salivary glands” (Theranostics, 2023)

How the values were obtained:
[1] = test system: LNCaP tumor-bearing mice; test: Ex vivo biodistribution in LNCaP tumor-bearing mice; parameters: species or system mouse
Description: (§1) Imaging, biodistribution and radioligand therapy experiments were performed following previously published procedures using male NOD-scid IL2Rg^null (NSG) or NOD.Cg-Rag1^tm1MomIl2rg^tm1Wjl/SzJ (NRG) mice [10]-[12],[14]-[15]. The experiments were conducted according to the guidelines established by the Canadian Council on Animal Care and approved by Animal Ethics Committee of the University of British Columbia. The mice were briefly sedated by inhalation of 2% isoflurane in oxygen, and implanted subcutaneously with 1×10^7 LNCaP cells behind the left shoulder. The mice were imaged or used in biodistribution studies when the tumor grew to 5-8 mm in diameter over a period of 4-5 weeks.
For biodistribution studies, the mice were injected with the radioligand (2-4 MBq) as described above. For blocking, the mice were co-injected with nonradioactive DCFPyL (0.5 mg). At predetermined time points, the mice were sedated by isoflurane inhalation and euthanized by CO2 inhalation. Blood was withdrawn by cardiac puncture, and organs/tissues of interest were collected, weighed and counted using an automatic gamma counter (Tables S4-S7).

[2] = Radiation dosimetry for major organs of 25-g mice (OLINDA, MOBY phantom); type: in vivo, mouse
Description: Internal dosimetry estimates were calculated using the organ level internal dose assessment (OLINDA) software v.2.2 following our previously published procedures. These estimates were performed for the mouse using the 25g MOBY phantom, and for the tumors using the previously reported unit density sphere model. Both the phantom and the sphere model are available in OLINDA and require the input of the total number of decays normalized by injected activity in units of MBq×h/MBq for each of the source organ/tumor.
The biodistribution data (available in Table S5-S7) were used to determine the kinetics input values required by OLINDA. First, each of the values was decayed to its corresponding time point (the values on the table are shown at injection time). Then the different time-points of the uptake data (%ID/g) for each organ were fitted to both mono-exponential (%ID/g = ae^⎯bt) and bi-exponential (%ID/g = ae^⎯bt + ce^⎯dt) functions using in-house software developed in Python. The best fit was selected based on maximizing the coefficient of determination (R^2) of the fit and minimizing the residuals. The areas under the curves were analytically calculated based on the parameters obtained from the best fit of each organ and this provided the kinetic input values required by OLINDA.
In the mouse case, the adrenals, blood, fat, and muscle are not modeled in the phantom. These organs were grouped together and included in what OLINDA calls the remainder of the body. Lastly, the numbers of decays in the tumors were also calculated based on the biodistribution data of the mice and the values were inputted into the sphere model available in OLINDA.

[3] = test system: LNCaP tumor-bearing mice; test: Radioligand therapy study in LNCaP tumor-bearing mice; type: in vivo, mouse
Description: as §1
For radiotherapy study, tumor-bearing mice were injected with saline (the control group), [^177Lu]Lu-PSMA-617 (37 MBq) or [^177Lu]-HTK03170 (37, 18.5 and 9.3 MBq) (n = 7-8 per treatment group). Tumor size and body weight were measured twice a week from the date of injection (Day 0) until completion of the study (Day 180). Endpoint criteria were defined as > 20% weight loss, tumor volume > 1000 mm^3, or active ulceration of the tumor.

For COc1ccc(CCCC(=O)NCC(=O)N[C@@H](CCCCNC(=O)CN2CCN(CC(=O)[O-])CCN(CC(=O)[O-])CCN(CC(=O)[O-])CC2)C(=O)NC[C@H]2CC[C@H](C(=O)N[C@@H](Cc3c4ccccc4cc4ccccc34)C(=O)NCCCC[C@H](NC(=O)N[C@@H](CCCC(=O)O)C(=O)O)C(=O)O)CC2)cc1.[177Lu+3] [[^177Lu]Lu-HTK03170], which “Tumor:Muscle uptake ratio” value ([1]; 24 h post-injection) is on record?
Its value is 736 ± 333.

What about the “Tumor:Salivary gland uptake ratio” value ([1]; 24 h post-injection) of the same compound?
The value was 202 ± 49.3.

And the Adrenal glands uptake ([1]; 72 h post-injection)?
The Adrenal glands uptake was 0.27 ± 0.11 %ID/g.

And the Blood uptake ([1]; 72 h post-injection)?
The Blood uptake was 0.06 ± 0.02 %ID/g.

What about the “Blood:Salivary gland uptake ratio” value ([1]; 72 h post-injection) of the same compound?
The value was 0.57 ± 0.17.

And the Bone uptake ([1]; 72 h post-injection)?
The Bone uptake was 0.03 ± 0.02 %ID/g.

And the Brain uptake ([1]; 72 h post-injection)?
Its Brain uptake is 0.01 ± 0.00 %ID/g.

What about the Fat uptake ([1]; 72 h post-injection) of the same compound?
The Fat uptake was 0.04 ± 0.02 %ID/g.

And the Heart uptake ([1]; 72 h post-injection)?
The Heart uptake was 0.09 ± 0.03 %ID/g.

What about the Intestines uptake ([1]; 72 h post-injection) of the same compound?
The Intestines uptake was 0.14 ± 0.11 %ID/g.

And the Kidneys uptake ([1]; 72 h post-injection)?
Its Kidneys uptake is 2.56 ± 0.62 %ID/g.

What about the Lacrimal glands uptake ([1]; 72 h post-injection) of the same compound?
Its Lacrimal glands uptake is 0.01 ± 0.01 %ID/g.

And the Liver uptake ([1]; 72 h post-injection)?
The Liver uptake was 0.36 ± 0.13 %ID/g.

And the Lungs uptake ([1]; 72 h post-injection)?
The Lungs uptake was 0.18 ± 0.04 %ID/g.

What about the Muscle uptake ([1]; 72 h post-injection) of the same compound?
Its Muscle uptake is 0.02 ± 0.01 %ID/g.

What about the Pancreas uptake ([1]; 72 h post-injection) of the same compound?
Its Pancreas uptake is 0.04 ± 0.01 %ID/g.

What about the Salivary glands uptake ([1]; 72 h post-injection) of the same compound?
The Salivary glands uptake was 0.11 ± 0.03 %ID/g.

What about the Spleen uptake ([1]; 72 h post-injection) of the same compound?
Its Spleen uptake is 0.38 ± 0.15 %ID/g.

What about the Stomach uptake ([1]; 72 h post-injection) of the same compound?
The Stomach uptake was 0.28 ± 0.33 %ID/g.

And the Testes uptake ([1]; 72 h post-injection)?
Its Testes uptake is 0.24 ± 0.04 %ID/g.

What about the Thyroid uptake ([1]; 72 h post-injection) of the same compound?
The Thyroid uptake was 0.15 ± 0.01 %ID/g.

What about the Tumor uptake ([1]; 72 h post-injection) of the same compound?
Its Tumor uptake is 59.3 ± 16.0 %ID/g.

And the “Tumor:Blood uptake ratio” value ([1]; 72 h post-injection)?
The value was 1029 ± 459.

And the “Tumor:Kidney uptake ratio” value ([1]; 72 h post-injection)?
The value was 24.0 ± 6.93.

What about the “Tumor:Muscle uptake ratio” value ([1]; 72 h post-injection) of the same compound?
The value was 3374 ± 1417.

And the “Tumor:Salivary gland uptake ratio” value ([1]; 72 h post-injection)?
Its value is 566 ± 236.

What about the Adrenal glands uptake ([1]; 120 h post-injection) of the same compound?
The Adrenal glands uptake was 0.23 ± 0.18 %ID/g.

And the Blood uptake ([1]; 120 h post-injection)?
The Blood uptake was 0.02 ± 0.01 %ID/g.

And the “Blood:Salivary gland uptake ratio” value ([1]; 120 h post-injection)?
The value was 0.31 ± 0.06.

And the Bone uptake ([1]; 120 h post-injection)?
Its Bone uptake is 0.02 ± 0.01 %ID/g.

And the Fat uptake ([1]; 120 h post-injection)?
The Fat uptake was 0.04 ± 0.03 %ID/g.

And the Heart uptake ([1]; 120 h post-injection)?
Its Heart uptake is 0.05 ± 0.02 %ID/g.

What about the Intestines uptake ([1]; 120 h post-injection) of the same compound?
The Intestines uptake was 0.05 ± 0.06 %ID/g.

And the Kidneys uptake ([1]; 120 h post-injection)?
The Kidneys uptake was 1.48 ± 0.44 %ID/g.

And the Liver uptake ([1]; 120 h post-injection)?
The Liver uptake was 0.26 ± 0.11 %ID/g.

And the Lungs uptake ([1]; 120 h post-injection)?
The Lungs uptake was 0.07 ± 0.02 %ID/g.

What about the Muscle uptake ([1]; 120 h post-injection) of the same compound?
The Muscle uptake was 0.01 ± 0.01 %ID/g.

What about the Pancreas uptake ([1]; 120 h post-injection) of the same compound?
Its Pancreas uptake is 0.02 ± 0.02 %ID/g.

What about the Salivary glands uptake ([1]; 120 h post-injection) of the same compound?
Its Salivary glands uptake is 0.05 ± 0.03 %ID/g.

And the Spleen uptake ([1]; 120 h post-injection)?
Its Spleen uptake is 0.53 ± 0.35 %ID/g.

What about the Stomach uptake ([1]; 120 h post-injection) of the same compound?
The Stomach uptake was 0.08 ± 0.15 %ID/g.

And the Testes uptake ([1]; 120 h post-injection)?
The Testes uptake was 0.16 ± 0.04 %ID/g.

And the Thyroid uptake ([1]; 120 h post-injection)?
The Thyroid uptake was 0.09 ± 0.04 %ID/g.

And the Tumor uptake ([1]; 120 h post-injection)?
The Tumor uptake was 71.9 ± 19.4 %ID/g.

And the “Tumor:Blood uptake ratio” value ([1]; 120 h post-injection)?
The value was 3996 ± 2182.

And the “Tumor:Kidney uptake ratio” value ([1]; 120 h post-injection)?
The value was 46.4 ± 21.3.

What about the “Tumor:Muscle uptake ratio” value ([1]; 120 h post-injection) of the same compound?
Its value is 12778 ± 19955.

And the “Tumor:Salivary gland uptake ratio” value ([1]; 120 h post-injection)?
Its value is 1167 ± 531.

What about the “Peaked tumor uptake relative to ^68Ga-labeled non-albumin-binder analog” value ([1]; mouse, in vivo) of the same compound?
The value was ~ 3 fold.

And the “Peaked average tumor uptake” value ([1]; peak over 1-120 h post-injection)?
The value was ~ 60 %ID/g.

What about the “Time of peak tumor uptake” value ([1]; post-injection, listed as 177Lu-labeled HTK03170) of the same compound?
The value was 4 to 24 h.

What about the Kinetics value ([2]; source organ Brain) of the same compound?
The Kinetics value was 2.55E-02 MBq-h/MBq.

And the Kinetics value ([2]; source organ Cortical bone)?
Its Kinetics value is 1.91E-01 MBq-h/MBq.

What about the Kinetics value ([2]; source organ Heart) of the same compound?
Its Kinetics value is 7.94E-02 MBq-h/MBq.

And the Kinetics value ([2]; source organ Kidneys)?
Its Kinetics value is 1.33E+00 MBq-h/MBq.

What about the Kinetics value ([2]; source organ Large intestine contents) of the same compound?
Its Kinetics value is 1.12E-01 MBq-h/MBq.

What about the Kinetics value ([2]; source organ Liver) of the same compound?
Its Kinetics value is 1.24E+00 MBq-h/MBq.

And the Kinetics value ([2]; source organ Lungs)?
Its Kinetics value is 6.60E-02 MBq-h/MBq.

And the Kinetics value ([2]; source organ Pancreas)?
The Kinetics value was 4.12E-02 MBq-h/MBq.

What about the Kinetics value ([2]; source organ Remainder of the body) of the same compound?
Its Kinetics value is 4.23E+00 MBq-h/MBq.

And the Kinetics value ([2]; source organ Small intestine)?
Its Kinetics value is 3.35E-01 MBq-h/MBq.

What about the Kinetics value ([2]; source organ Spleen) of the same compound?
Its Kinetics value is 1.04E-01 MBq-h/MBq.

And the Kinetics value ([2]; source organ Stomach)?
Its Kinetics value is 1.32E-02 MBq-h/MBq.

What about the Kinetics value ([2]; source organ Testes) of the same compound?
The Kinetics value was 9.21E-02 MBq-h/MBq.

And the Kinetics value ([2]; source organ Thyroid)?
The Kinetics value was 5.15E-03 MBq-h/MBq.

What about the Kinetics value ([2]; source organ Urinary bladder) of the same compound?
The Kinetics value was 1.11E+00 MBq-h/MBq.

And the Median survival ([3]; 9.3 MBq injected)?
Its Median survival is 90 days.

What about the Median survival ([3]; 18.5 MBq injected) of the same compound?
The Median survival was 131 days.

What about the “Body weight of the treated mice” value ([3]; 37 MBq injected) of the same compound?
Its value is “continuously increasing body weight”.

What about the Median survival ([3]; 37 MBq injected) of the same compound?
The Median survival was > 180 days.
